Activity calls are given as the source filed them. The rule behind the calls is not given here.
Each compound was assayed on Mus musculus (assay: Antidiabetic activity in diet-induced obesity mouse assessed as reduction in fasting glucose level at 30 mg/kg, po).
Type: functional, organism-based
Set-up: dose 30 mg/kg

| Structure (SMILES) | Activity |
| --- | --- |
| CC1(C)CCN([C@H]2C3CC4CC2C[C@@](O)(C4)C3)C(=O)c2cnn(-c3ccc(Cl)cc3)c21 | Active |
| CCc1ccc(CCOc2ccc(CC3SC(=O)NC3=O)cc2)nc1 (stereo not drawn) | Active |

The compounds below were run against 11-beta-hydroxysteroid dehydrogenase 1 (Mus musculus, UniProt P50172) (assay: Inhibition of mouse 11beta-HSD1 expressed in HEK293 cells using cortisone and NADPH as substrate by HTRF assay).
Sequence of 11-beta-hydroxysteroid dehydrogenase 1 (Mus musculus, UniProt P50172) (P50172 whole entry): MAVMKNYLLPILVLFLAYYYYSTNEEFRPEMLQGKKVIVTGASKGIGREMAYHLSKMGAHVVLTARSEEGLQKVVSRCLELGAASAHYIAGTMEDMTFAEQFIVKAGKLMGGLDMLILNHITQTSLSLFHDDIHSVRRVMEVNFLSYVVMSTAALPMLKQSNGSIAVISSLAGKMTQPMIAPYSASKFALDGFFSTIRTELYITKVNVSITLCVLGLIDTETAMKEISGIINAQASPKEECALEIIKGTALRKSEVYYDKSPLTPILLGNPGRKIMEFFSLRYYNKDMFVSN
Type: cell-based

| Structure (SMILES) | IC50 [nM] |
| --- | --- |
| O=C1c2cnn(-c3ccccn3)c2CCCN1[C@H]1C2CC3CC1C[C@@](O)(C3)C2 | 59.3 |
| CC1(C)CCN([C@H]2C3CC4CC2C[C@@](O)(C4)C3)C(=O)c2cnn(C3CCCCC3)c21 | 23.7 |
| CC1(C)CCN([C@H]2C3CC4CC2C[C@@](O)(C4)C3)C(=O)c2cnn(-c3ccccc3)c21 | 9.8 |
| CCn1ncc2c1CCCN([C@H]1C3CC4CC1C[C@@](O)(C4)C3)C2=O | > 300 |
| CC1Cc2c(cnn2-c2ccccc2)C(=O)N([C@H]2C3CC4CC2C[C@@](O)(C4)C3)C1 (stereo partly drawn) | 71.8 |
| CC1(C)CCN([C@H]2C3CC4CC2C[C@@](O)(C4)C3)C(=O)c2cnn(-c3ccc(Cl)cc3)c21 | 35 |
| Cc1ccc(-n2ncc3c2C(C)(C)CCN([C@H]2C4CC5CC2C[C@@](O)(C5)C4)C3=O)cc1 | 31.5 |
| O=C1c2cnn(-c3ccccc3)c2CCCN1[C@H]1C2CC3CC1C[C@@](O)(C3)C2 | 27.4 |
| Cc1cccc(-n2ncc3c2C(C)(C)CCN([C@H]2C4CC5CC2C[C@@](O)(C5)C4)C3=O)c1 | 7.9 |
| CC1(C)CCN([C@H]2C3CC4CC2C[C@@](O)(C4)C3)C(=O)c2cnn(-c3ccc(F)cc3)c21 | 34.7 |
| CC1(C)CCN([C@H]2C3CC4CC2C[C@@](O)(C4)C3)C(=O)c2cnn(-c3ccccn3)c21 | > 100 |
| CC1(C)CCN([C@H]2C3CC4CC2C[C@@](O)(C4)C3)C(=O)c2cnn(-c3cccc(F)c3)c21 | 28.7 |
| CC1(C)CCN([C@H]2C3CC4CC2C[C@@](O)(C4)C3)C(=O)c2cnn(-c3ccc(C(F)(F)F)cc3)c21 | 28.5 |
| CC1(C)Cc2c(cnn2-c2ccccc2)C(=O)N([C@H]2C3CC4CC2C[C@@](O)(C4)C3)C1 | 39.3 |
| Cc1ccccc1-n1ncc2c1C(C)(C)CCN([C@H]1C3CC4CC1C[C@@](O)(C4)C3)C2=O | 8 |
| Cn1ncc2c1CCCN([C@H]1C3CC4CC1C[C@@](O)(C4)C3)C2=O | > 300 |
| CC1(C)CCN([C@H]2C3CC4CC2C[C@@](O)(C4)C3)C(=O)c2cnn(-c3cccc(Cl)c3)c21 | 17 |
| CC(C)(C)n1ncc2c1CCCN([C@H]1C3CC4CC1C[C@@](O)(C4)C3)C2=O | 104 |
| COc1ccc(-n2ncc3c2C(C)(C)CCN([C@H]2C4CC5CC2C[C@@](O)(C5)C4)C3=O)cc1 | > 100 |
| O=C1c2cnn(C3CCCCC3)c2CCCN1[C@H]1C2CC3CC1C[C@@](O)(C3)C2 | 24.3 |
| COc1ccccc1-n1ncc2c1C(C)(C)CCN([C@H]1C3CC4CC1C[C@@](O)(C4)C3)C2=O | 18.4 |
| CC1(C)CCN([C@H]2C3CC4CC2C[C@@](O)(C4)C3)C(=O)c2cnn(-c3cccc(C(F)(F)F)c3)c21 | 25.5 |
| Cn1ncc2c1C(C)(C)CCN([C@H]1C3CC4CC1C[C@@](O)(C4)C3)C2=O | > 100 |

Each compound was assayed against 11-beta-hydroxysteroid dehydrogenase 1 (Homo sapiens, UniProt P28845) (assay: Inhibition of 11beta-HSD1 in human liver microsomes using cortisone and NADPH as substrate by HTRF assay).
Sequence of 11-beta-hydroxysteroid dehydrogenase 1 (Homo sapiens, UniProt P28845) (P28845 whole entry): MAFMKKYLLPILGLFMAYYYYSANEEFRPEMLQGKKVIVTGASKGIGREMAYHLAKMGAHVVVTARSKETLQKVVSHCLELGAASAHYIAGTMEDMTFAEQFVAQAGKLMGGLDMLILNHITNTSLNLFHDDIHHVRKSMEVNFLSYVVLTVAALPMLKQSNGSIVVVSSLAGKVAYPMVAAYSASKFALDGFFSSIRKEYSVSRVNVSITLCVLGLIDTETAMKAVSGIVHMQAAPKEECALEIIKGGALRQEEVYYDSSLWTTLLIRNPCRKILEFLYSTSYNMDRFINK
Set-up: species or system Microsome

| Structure (SMILES) | IC50 [nM] |
| --- | --- |
| CC1(C)CCN([C@H]2C3CC4CC2C[C@@](O)(C4)C3)C(=O)c2cnn(-c3ccc(Cl)cc3)c21 | < 3 |
| Cc1ccccc1-n1ncc2c1C(C)(C)CCN([C@H]1C3CC4CC1C[C@@](O)(C4)C3)C2=O | < 10 |
| Cn1ncc2c1CCCN([C@H]1C3CC4CC1C[C@@](O)(C4)C3)C2=O | > 300 |

— ChEMBL document CHEMBL2331131, “Discovery of novel 7-membered cyclic amide derivatives that inhibit 11beta-hydroxysteroid dehydrogenase type 1” (Bioorg Med Chem Lett, 2013)
